Measurements: ChEMBL document CHEMBL4418315, “Atg7 inhibitors and the uses thereof” (2018)

The molecules below were run against T1, Ubiquitin-like modifier-activating enzyme ATG7 (Homo sapiens, UniProt O95352) (assay: Inhibition of recombinant His-tagged human ATG7 incubated for 105 mins in presence of GST-tagged ATG3 and Flag-tagged Gabarap and measured after 2 hrs by FRET assay).
T1 sequence (O95352 whole entry): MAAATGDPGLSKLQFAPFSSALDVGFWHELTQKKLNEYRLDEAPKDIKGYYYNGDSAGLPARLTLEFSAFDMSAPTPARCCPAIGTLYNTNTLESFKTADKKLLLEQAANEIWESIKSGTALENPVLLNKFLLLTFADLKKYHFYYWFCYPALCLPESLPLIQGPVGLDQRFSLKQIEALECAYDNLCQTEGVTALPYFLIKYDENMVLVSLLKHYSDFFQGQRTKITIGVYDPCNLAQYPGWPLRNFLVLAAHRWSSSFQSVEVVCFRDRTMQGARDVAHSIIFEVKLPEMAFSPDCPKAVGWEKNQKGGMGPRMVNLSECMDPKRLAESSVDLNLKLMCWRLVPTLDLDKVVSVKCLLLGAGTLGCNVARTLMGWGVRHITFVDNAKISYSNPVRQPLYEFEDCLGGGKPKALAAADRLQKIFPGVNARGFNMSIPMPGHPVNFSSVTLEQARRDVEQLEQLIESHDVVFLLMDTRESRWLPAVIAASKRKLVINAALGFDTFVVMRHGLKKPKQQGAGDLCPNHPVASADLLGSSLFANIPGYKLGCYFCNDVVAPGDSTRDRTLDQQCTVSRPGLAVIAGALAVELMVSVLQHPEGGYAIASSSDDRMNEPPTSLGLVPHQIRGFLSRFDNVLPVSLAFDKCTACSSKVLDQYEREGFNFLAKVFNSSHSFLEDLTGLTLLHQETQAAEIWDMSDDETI
Molecule Nc1ncnc2c1c(SCCO)nn2[C@@H]1O[C@H](COS(N)(=O)=O)[C@@H](O)[C@@H]1F has an IC50 of 20 to 50 nM.
CCc1nn([C@H]2C[C@H](O)[C@H](COS(N)(=O)=O)O2)c2ncnc(N)c12 gave an IC50 of over 500 nM.

These molecules were tested against T2, Ubiquitin-like modifier-activating enzyme ATG7 (Homo sapiens) (UniProt O95352) (assay: Inhibition of recombinant His-tagged human ATG7 at 0.111 uM incubated for 105 mins in presence of GST-tagged ATG3 and Flag-tagged Gabarap and measured after 2 hrs by FRET assay relative to control).
T2 sequence (whole entry): T1 sequence (O95352 whole entry)
Molecule Nc1ncnc2c1cnn2[C@H]1C[C@H](O)[C@H](COS(N)(=O)=O)O1 has an inhibition of 5%.
CC[C@H](C)Sc1nn([C@@H]2O[C@H](COS(N)(=O)=O)[C@@H](O)[C@@H]2F)c2ncnc(N)c12 gave an inhibition of 61%.
With Cc1ccc(Sc2nn([C@H]3C[C@H](O)[C@@H](COS(N)(=O)=O)O3)c3ncnc(N)c23)c(F)c1 the inhibition was 59 to 64%.
Work on CC[C@@H](C)Sc1nn([C@@H]2O[C@H](COS(N)(=O)=O)[C@@H](O)[C@@H]2F)c2ncnc(N)c12 yielded an inhibition of 63%.
